{
  "source": "patent US10046060B2",
  "about": "“Co-administration of an agent linked to an internalization peptide with an anti-inflammatory” (NoNO Inc., priority 2007, dated 2018)",
  "key": {"PSD95 / NMDAR 2B": {"target": "PSD95 / NMDAR 2B (Homo sapiens, UniProt P78352)", "sequence (P78352 whole entry)": "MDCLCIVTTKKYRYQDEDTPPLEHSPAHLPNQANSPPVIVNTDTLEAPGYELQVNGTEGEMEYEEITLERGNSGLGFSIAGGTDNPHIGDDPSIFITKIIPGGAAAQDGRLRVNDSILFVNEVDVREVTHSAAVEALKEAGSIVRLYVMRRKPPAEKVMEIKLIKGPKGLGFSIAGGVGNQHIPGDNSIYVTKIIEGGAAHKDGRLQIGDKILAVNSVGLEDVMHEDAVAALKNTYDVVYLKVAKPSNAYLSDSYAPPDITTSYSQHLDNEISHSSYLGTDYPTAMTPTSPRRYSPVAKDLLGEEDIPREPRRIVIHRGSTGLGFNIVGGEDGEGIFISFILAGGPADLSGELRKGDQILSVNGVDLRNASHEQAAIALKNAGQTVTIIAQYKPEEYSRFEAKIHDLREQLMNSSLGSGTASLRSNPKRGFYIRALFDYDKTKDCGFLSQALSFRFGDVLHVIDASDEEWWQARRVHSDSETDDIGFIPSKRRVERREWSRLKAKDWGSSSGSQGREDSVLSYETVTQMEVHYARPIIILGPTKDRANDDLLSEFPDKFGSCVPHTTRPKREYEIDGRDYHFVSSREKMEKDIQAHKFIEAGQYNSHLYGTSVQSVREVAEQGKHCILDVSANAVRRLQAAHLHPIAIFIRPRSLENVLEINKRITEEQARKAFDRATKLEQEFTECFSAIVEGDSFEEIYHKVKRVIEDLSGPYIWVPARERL", "conditions": "reported by Bach; cited from earlier work"}, "rats": {"test_system": "rats", "test": "Mean arterial pressure (MAP) in rats after Tat peptides with or without anti-inflammatory agents"}, "Beagle dogs": {"test_system": "Beagle dogs", "test": "Antihistamine pre-treatment before Tat-NR2B9c in dogs", "conditions": "benadryl 1 mg/kg 30 minutes before 12.5 mg/kg Tat-NR2B9c; female dog"}, "Sprague Dawley rats": {"test_system": "Sprague Dawley rats", "test": "MAP in rats: lodoxamide co-formulation or cromolyn infusion with Tat-NR2B9c", "format": "in vivo, rat", "conditions": "for Effect on drop in MAP resulting from Tat-NR2B9c: cromolyn infused for three minutes immediately before Tat-NR2B9c, FIG. 13B", "experimental": "Animals (male, Sprague Dawley) were allowed to eat and drink before surgery. Animals were put to sleep in a chamber with 2% isoflurane and 1 L oxygen. Once asleep, rat was transferred to a face mask at 1% isoflurane and a gas of 1 L oxygen. PE50 tubing was used for connection of the femoral artery and vein. These arteries and veins provide access for continual monitoring of arterial pressure and for drug infusion (50 mg per kg in a volume of 2 ml per kg injected with in 2 minutes). Surgeries were done on the left side. Animal's blood pressure and body temperature was monitored for 90 minutes."}, "mast cells": {"test_system": "mast cells", "test": "Mast cell degranulation assay (tryptase activity)", "format": "cell-based, mouse", "design": "Mast cell degranulation (relative tryptase activity): dose or concentration left out as unconfirmed", "conditions": "for Dose dependence of mast cell degranulation: increasing concentrations, FIG. 3"}, "rat 3PVO model of stroke": {"test_system": "rat 3PVO model of stroke", "test": "Rat 3PVO model of stroke, lodoxamide co-formulation", "format": "in vivo", "conditions": "FIG. 15", "experimental": "Methods for Three pial vessel occlusion model of ischemia (3PVO): Experiments were performed on fasted rats (free overnight access to water but not food). […] In brief, rats were anesthetized with a 0.5 ml/kg intramuscular injection of ketamine (100 mg/kg), acepromazine (2 mg/kg), and xylazine (5 mg/kg), supplemented with one-third of the initial dose as required. A rectal temperature was monitored and the animal body temperature was maintained at 37° C. by using a heating pad. The skull was exposed via a midline incision and scraped free of tissue. Using a dissecting microscope and a pneumatic dental drill, a 6- to 8-mm rectangular cranial window was made over the right somatosensory cortex (2 mm caudal and 5 mm lateral to bregma) and the loose piece of skull was removed while keeping the dura intact. The 3 pial arteriolar middle cerebral artery branches were electrically cauterized around the barrel cortex area. Incision was sutured with 3.0 silk sutures. Animals were returned to individual cages under a heating lamp to maintain body temperature until the rats fully recovered. Food and water was supplied. One hour after 3PVO ischemia the rats were injected with 3 μM/kg Tat-NR2B9c or Rv-Tat-NR2B9c intravenously through tail vein. […] Images were scanned (CanoScan, 4200F, Canon). Infarct percentage was calculated per slice using Image J software (NIH). […]"}, "[1]": {"test_system": "Sprague Dawley rats, P3VO model of stroke", "test": "Pial 3 vessel occlusion (P3VO) model of stroke, infarct size", "format": "in vivo, rat", "conditions": "3 nM/g i.v. 1 h after stroke, vs saline"}, "[2]": {"conditions": "Table 1 comment; cited from earlier work"}, "[3]": {"test_system": "animal model of infarction", "conditions": "cited from earlier work"}, "cerebral ischemia": {"test_system": "cerebral ischemia", "conditions": "reported in WO 2008/014917; cited from earlier work"}},
  "note": "Read-outs that look alike come from different tables or passages of the source. Square brackets hold non-standard residues; d marks the D form. Ends that are not written are not given here.",
  "data": [
    {"molecule": "IESDV (synthetic pentamer peptide from the C-terminus of NMDAR 2B)", "values": [
      {"measurement": "Inhibition of binding of NMDAR 2B to PSD95", "setting": "PSD95 / NMDAR 2B", "result": "effective in inhibiting binding of NMDAR 2B to PSD95"}
    ]},
    {"molecule": "CNC(=C[N+](=O)[O-])NCCSCc1ccc(CN(C)C)o1", "note": "[Ranitidine]", "values": [
      {"measurement": "Effect of the agent itself on MAP", "setting": "rats; Ranitidine only", "result": "no effect on MAP itself"}
    ]},
    {"molecule": "CN(C)CCOC(c1ccccc1)c1ccccc1", "note": "[diphenhydramine]", "values": [
      {"measurement": "Effect of the agent itself on blood pressure", "setting": "rats; diphenhydramine 1 mg/kg", "result": "did not itself reduce blood pressure"},
      {"measurement": "Effect on decline of blood pressure due to Tat-NR2B9c", "setting": "rats; diphenhydramine 1 mg/kg", "result": "not observed to have a significant effect"},
      {"measurement": "Effect of the agent itself on blood pressure before Tat-NR2B9c", "setting": "rats; diphenhydramine 12.5 mg/kg", "result": "caused a sharp reduction in blood pressure"},
      {"measurement": "Effect on decline in blood pressure due to Tat-NR2B9c", "setting": "rats; diphenhydramine 12.5 mg/kg, FIGS. 9A-D", "result": "significantly inhibited decline in blood pressure"},
      {"measurement": "Reaction after pre-treatment", "setting": "Beagle dogs", "result": "no reaction"}
    ]},
    {"molecule": "COc1ccc(CN(CCN(C)C)c2ccccn2)cc1", "note": "[pyrilamine]", "values": [
      {"measurement": "Reduction of maximal decline in blood pressure due to Tat-NR2B9c", "setting": "rats; pyrilamine, FIGS. 10A-D", "result": "did not achieve statistical significance"}
    ]},
    {"molecule": "N#Cc1cc(NC(=O)C(=O)O)c(Cl)c(NC(=O)C(=O)O)c1", "note": "[lodoxamide, 2-[2-chloro-5-cyano-3-(oxaloamino)anilino]-2-oxoacetic acid]", "values": [
      {"measurement": "Effect on drop in MAP resulting from Tat-NR2B9c injection", "setting": "Sprague Dawley rats; 6 mg/kg lodoxamide co-formulated with Tat-NR2B9c (3 mg/kg, 3 mM/kg elsewhere in the source), 2 minute infusion, FIG. 13A", "result": "completely abrogate the drop in MAP"}
    ]},
    {"molecule": "H-YGRKKRRQRRRKLSSIESDV-OH [Tat-NR2B9c]", "values": [
      {"measurement": "Dose dependence of mast cell degranulation", "setting": "mast cells", "result": "dose dependent"},
      {"measurement": "Infarction size relative to vehicle control", "setting": "rat 3PVO model of stroke", "result": "significantly inhibited infarction size"},
      {"measurement": "Infarct size 24 hours after P3VO surgery", "setting": "[1]; female rats", "result": "complete lack of infarct"},
      {"measurement": "Infarct size 24 hours after P3VO surgery", "setting": "[1]; male rats", "result": "significantly decreased infarct size"}
    ]},
    {"molecule": "YGRKKRRQRRRKLSSIEADA (Synthetic Tat-NR2B9c peptide with 2 point mutations in the PSD-95 binding domain) [AA]", "values": [
      {"measurement": "Dose dependence of mast cell degranulation", "setting": "mast cells", "result": "dose dependent"}
    ]},
    {"molecule": "CN[C@H](CC(C)C)C(=O)N[C@H]1C(=O)N[C@@H](CC(N)=O)C(=O)N[C@H]2C(=O)N[C@H]3C(=O)N[C@H](C(=O)N[C@H](C(=O)O)c4cc(O)cc(O)c4-c4cc3ccc4O)[C@H](O)c3ccc(c(Cl)c3)Oc3cc2cc(c3O[C@@H]2O[C@H](CO)[C@@H](O)[C@H](O)[C@H]2O[C@H]2C[C@](C)(N)[C@H](O)[C@H](C)O2)Oc2ccc(cc2Cl)[C@H]1O", "note": "[Vacomycin]", "values": [
      {"measurement": "halflife", "setting": "[2]", "result": "uptake, 4-6 hr"}
    ]},
    {"molecule": "NCCc1ccc(O)c(O)c1", "note": "[Dopamine]", "values": [
      {"measurement": "BBB crossing", "setting": "[2]", "result": "Cannot cross"}
    ]},
    {"molecule": "N[C@@H](Cc1ccc(O)c(O)c1)C(=O)O", "note": "[Levodopa]", "values": [
      {"measurement": "halflife", "setting": "[2]", "result": "halflife = 1.5 hrs"}
    ]},
    {"molecule": "O=C(O)c1cc(=O)c2c(OCC(O)COc3cccc4oc(C(=O)O)cc(=O)c34)cccc2o1", "note": "[cromolyn, 5,5′-(2-hydroxypropane-1,3-diyl)bis(oxy)bis(4-oxo-4H-chromene-2-carboxylic acid)]", "values": [
      {"measurement": "Effect on drop in MAP resulting from Tat-NR2B9c", "setting": "Sprague Dawley rats", "result": "completely abrogate a drop in MAP"},
      {"measurement": "Effect on drop in MAP resulting from Tat-NR2B9c", "setting": "Sprague Dawley rats; listed as Cromolyn", "result": "completely abrogated the drop in MAP"},
      {"measurement": "Direct activity in inhibiting infarctions", "setting": "[3]; administered i.c.v.", "result": "has direct activity in inhibiting infarctions"},
      {"measurement": "Direct activity in inhibiting infarctions", "setting": "[3]; administered intravenously", "result": "not intravenously"},
      {"measurement": "Effect on decline of MAP due to Rv-Tat-NR2B9c", "setting": "rats; cromolyn before Rv-Tat-NR2B9c, FIGS. 8E and F", "result": "significantly inhibited decline of MAP values"},
      {"measurement": "Effect on MAP in the absence of Tat-NR2B9c", "setting": "rats; cromolyn plus saline control", "result": "did not itself affect MAP"}
    ]},
    {"molecule": "NC(=O)CN1CCCC1=O", "note": "[Piracetam]", "values": [
      {"measurement": "BBB crossing", "setting": "[2]", "result": "Cannot cross"}
    ]},
    {"molecule": "vdseisslk-rrrqrrkkrgyin ([dV][dD][dS][dE][dI][dS][dS][dL][dK][dR][dR][dR][dQ][dR][dR][dK][dK][dR]G[dY][dI][dN]; also: retro-inverso)", "values": [
      {"measurement": "Inhibition of cerebral ischemia", "setting": "cerebral ischemia", "result": "effective in inhibiting cerebral ischemia"}
    ]},
    {"molecule": "KLSSIESDV (Synthetic pharmacologic agent) [NR2B9c]", "values": [
      {"measurement": "Mast cell degranulation (relative tryptase activity)", "setting": "mast cells; FIG. 2", "result": "did not"},
      {"measurement": "Mast cell degranulation, Tat sequence variants", "setting": "mast cells; all at 50 μM, Table 5 prints 125 mg/ml, FIG. 4", "result": "did not elicit this reaction"}
    ]}
  ]
}
